These results are taken from patent publication US7429578B2, “Tricyclic inhibitors of poly(ADP-ribose) polymerases” (Agouron Pharmaceuticals, Inc., priority 1999, dated 2008).

Molecules are shown by their SMILES. Values joined by “and” are separate entries in the source; they are usually repeats but may differ in a detail not shown here. Identical values can stand only once.

One data set concerns the target purified PARP protein (Homo sapiens, UniProt P09874). In words: PARP enzyme inhibition assay. It counts as biochemical. As to conditions: [32P]NAD+ incorporation, 500 μM NAD+, 25° C.; two values in a cell = tested twice; read-out: Inhibition Constant Ki.
The subject of another data set is A549 cells. In words: Cytotoxicity potentiation assay (topotecan). It counts as cell-based. As to conditions: test compound at 0.4 μM, ratio of IC50 of topotecan alone to IC50 of topotecan with test compound.

Chain of purified PARP protein (P09874 whole entry): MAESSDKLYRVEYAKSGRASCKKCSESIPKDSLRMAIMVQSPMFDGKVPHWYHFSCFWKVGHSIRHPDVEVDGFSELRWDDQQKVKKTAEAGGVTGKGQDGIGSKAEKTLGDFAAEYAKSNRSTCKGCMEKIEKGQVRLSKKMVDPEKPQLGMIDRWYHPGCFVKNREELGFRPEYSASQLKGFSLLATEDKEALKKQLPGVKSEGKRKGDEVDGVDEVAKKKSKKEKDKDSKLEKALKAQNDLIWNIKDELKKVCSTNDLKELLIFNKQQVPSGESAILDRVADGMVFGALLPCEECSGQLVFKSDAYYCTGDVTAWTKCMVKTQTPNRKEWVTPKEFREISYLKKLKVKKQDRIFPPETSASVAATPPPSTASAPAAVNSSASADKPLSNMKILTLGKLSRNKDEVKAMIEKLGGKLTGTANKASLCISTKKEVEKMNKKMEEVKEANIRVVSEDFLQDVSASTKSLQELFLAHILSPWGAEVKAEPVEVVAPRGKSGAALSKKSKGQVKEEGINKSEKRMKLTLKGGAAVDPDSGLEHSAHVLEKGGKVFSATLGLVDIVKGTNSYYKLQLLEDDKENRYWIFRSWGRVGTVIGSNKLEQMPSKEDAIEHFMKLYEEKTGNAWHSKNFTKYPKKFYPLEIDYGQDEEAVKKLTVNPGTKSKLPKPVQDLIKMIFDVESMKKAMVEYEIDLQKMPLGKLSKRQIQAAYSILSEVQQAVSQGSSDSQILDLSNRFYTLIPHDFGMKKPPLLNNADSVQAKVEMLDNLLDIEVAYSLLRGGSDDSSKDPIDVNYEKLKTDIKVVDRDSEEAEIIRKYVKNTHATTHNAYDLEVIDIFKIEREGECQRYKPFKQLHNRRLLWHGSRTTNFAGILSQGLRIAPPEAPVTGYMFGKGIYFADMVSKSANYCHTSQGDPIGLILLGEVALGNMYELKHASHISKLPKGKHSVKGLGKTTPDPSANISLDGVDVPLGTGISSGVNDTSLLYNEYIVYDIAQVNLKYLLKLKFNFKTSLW

On to `CN(C)Cc1ccc(-c2[nH]c3cccc4c3c2CCNC4=O)cc1F` [Compound PPP, 2-(4-Dimethylaminomethyl-3-fluoro-phenyl)-1,3,4,5-tetrahydro-azepino[5,4,3-cd]indol-6-one], for which the melting point is 221.5 to 222.5 °C. Further, the inhibition constant Ki on purified PARP protein was 9.4 nM. In addition, in the data set on A549 cells, the “Cytotoxicity Potentiation PF50” value is reported as 2.1.

Molecule `O=C1NCCc2c(-c3ccc(Cl)cc3)[nH]c3cccc1c23` [GGG, 2-(4-Chloro-phenyl)-1,3,4,5-tetrahydro-azepino[5,4,3-cd]indol-6-one] had a melting point of 250 to 252 °C. Moreover, the inhibition constant Ki at purified PARP protein is 4.1 nM. Also, the “Cytotoxicity Potentiation PF50” value with A549 cells amounted to 1.9.

With `O=C1NCCc2c(-c3ccc(-c4ccccc4)cc3)[nH]c3cccc1c23` [VV, 2-Biphenyl-4-yl-1,3,4,5-tetrahydro-azepino[5,4,3-cd]indol-6-one], the melting point was 277 to 279 °C (dec.). Also, the Ki on purified PARP protein is 10 nM. Further, the “Cytotoxicity Potentiation PF50” value with A549 cells is listed as 2.0.

On to `CNCc1cccc(-c2[nH]c3cc(F)cc4c3c2CCNC4=O)c1` [HHHH, 8-Fluoro-2-(3-methylaminomethyl-phenyl)-1,3,4,5-tetrahydro-azepino[5,4,3-cd]indol-6-one], for which the melting point is 270 to 272 °C (dec.). For the same molecule, on purified PARP protein, the Ki turned out to be 2.2 nM. In the data set on A549 cells, the “Cytotoxicity Potentiation PF50” value was found to be 1.9.

Take `O=C1NCCc2c(-c3cccc(CO)c3)[nH]c3cccc1c23` [Compound 16, 2-(3-Hydroxymethylphenyl)-3,4,5,6-tetrahydro-1H-azepino[5,4,3-cd]indol-6-one]: the melting point was 258 to 259 °C (dec.). The Ki at purified PARP protein came out at 5 nM. The “Cytotoxicity Potentiation PF50” value in the data set with A549 cells was found to be 1.9.

`CNCc1cccc(-c2[nH]c3cccc4c3c2CCNC4=O)c1` [Compound PP, 2-(3-(N-Methylamino)methylphenyl)-3,4,5,6-tetrahydro-1H-azepino[5,4,3-cd]indol-6-one] displayed a melting point of 190 to 192 °C. Besides, the Ki at purified PARP protein came out at 5.3 nM. Besides, in the data set with A549 cells, the “Cytotoxicity Potentiation PF50” value amounted to 2.3.

Molecule `O=C1NCCc2c(-c3cccc(Oc4ccc(F)cc4)c3)[nH]c3cccc1c23` [UU, 2-[3-(4-Fluoro-phenoxy)-phenyl]-1,3,4,5-tetrahydro-azepino[5,4,3-cd]indol-6-one] had a melting point of 240 to 241 °C. Besides, the inhibitory constant (Ki) on purified PARP protein was determined as 10 nM. Besides, the “Cytotoxicity Potentiation PF50” value with A549 cells worked out at 1.8.

For `O=C1NCCc2c(-c3ccc(CN4CCCC4)c(F)c3)[nH]c3cccc1c23` [QQQ, 2-(3-Fluoro-4-pyrrolidin-1-ylmethyl-phenyl)-1,3,4,5-tetrahydro-azepino[5,4,3-cd]indol-6-one], the melting point is 139 to 140 °C (dec.). Moreover, the Ki at purified PARP protein is 10.2 nM. For the same molecule, the “Cytotoxicity Potentiation PF50” value in the data set on A549 cells amounted to 2.3.

For `O=C(Nc1ccc(F)cc1)c1[nH]c2cccc3c2c1CCNC3=O` [Compound YYY, 6-Oxo-3,4,5,6-tetrahydro-1H-azepino[5,4,3-cd]indole-2-carboxylic acid (4-fluorophenyl)-amide], the inhibition constant Ki on purified PARP protein is 6.3 nM. Also, the “Cytotoxicity Potentiation PF50” value in the data set on A549 cells is on record as 1.5.

With `O=C1NCCc2c(-c3ccc(CCN4CCCC4)cc3)[nH]c3cccc1c23` [MMM, 2-[4-(2-Pyrrolidin-1-yl-ethyl)-phenyl]-1,3,4,5-tetrahydro-azepino[5,4,3-cd]indol-6-one], the melting point was 228 to 229 °C (dec.). Besides, the inhibitory constant (Ki) at purified PARP protein stood at 9.4 nM. For the same molecule, the “Cytotoxicity Potentiation PF50” value in the data set with A549 cells is 2.3.

In the case of `CNCc1ccc(-c2[nH]c3cccc4c3c2CCNC4=O)cc1` [OO, 2-(4-(N-Methylamino)methylphenyl)-3,4,5,6-tetrahydro-1H-azepino[5,4,3-cd]indol-6-one], the inhibition constant Ki on purified PARP protein was 4.1 nM. For the same molecule, the “Cytotoxicity Potentiation PF50” value in the data set on A549 cells worked out at 2.4.

In the case of `O=C1NN=C(c2ccccc2)c2c[nH]c3cccc1c23` [Compound 28, 1,5-Dihydro-3-phenyl-[1,2]diazepino[4,5,6-cd]-indol-6-one], the inhibition constant (Ki) at purified PARP protein was 4 nM and 3.8 nM. Moreover, the “Cytotoxicity Potentiation PF50” value in the data set on A549 cells is listed as 1.

For the molecule `O=C1NN=Cc2c[nH]c3cccc1c23` [Compound 27, 1,5-Dihydro-[1,2]diazepino[4,5,6-cd]-indol-6-one], the inhibition constant (Ki) at purified PARP protein is 3.4 nM. Besides, the “Cytotoxicity Potentiation PF50” value with A549 cells stood at 1.3.

For the molecule `O=C1NCCc2c(-c3ccccc3)[nH]c3cccc1c23` [Compound 12, 2-Phenyl-3,4,5,6-tetrahydro-1H-azepino[5,4,3-cd]indol-6-one], the Ki at purified PARP protein came out at 4.2 nM. For the same molecule, the “Cytotoxicity Potentiation PF50” value with A549 cells is on record as 1.8.

Molecule `O=C1NCCc2c(-c3cccc(C(F)(F)F)c3)[nH]c3cccc1c23` [Compound 30, 2-(3-Trifluoromethyl-phenyl)-1,3,4,5-tetrahydro-azepino[5,4,3-cd]indol-6-one] came in with a melting point of 212.5 to 213.5 °C. The inhibitory constant (Ki) on purified PARP protein was found to be 6.3 nM. For the same molecule, the “Cytotoxicity Potentiation PF50” value with A549 cells is 2.4.

Take `O=C1NCCc2c(-c3cccc(CN4CCCC4)c3)[nH]c3cccc1c23` [TTTT, 2-(3-Pyrrolidin-1-ylmethylphenyl)-3,4,5,6-tetrahydro-1H-azepino[5,4,3-cd]indol-6-one]: the melting point was 219 to 223 °C (dec.). The Ki on purified PARP protein is 7.4 nM. Further, in the data set on A549 cells, the “Cytotoxicity Potentiation PF50” value is 1.6.

Regarding `CN(C)Cc1cccc(-c2[nH]c3cccc4c3c2CCNC4=O)c1` [Compound 22, 2-(3-(N,N-Dimethylamino)methylphenyl)-3,4,5,6-tetrahydro-1H-azepino[5,4,3-cd]indol-6-one], the melting point was 222 to 225 °C. Further, the Ki on purified PARP protein worked out at 7.2 nM. For the same molecule, the “Cytotoxicity Potentiation PF50” value in the data set with A549 cells worked out at 2.3.
